Data: publication PMC10967832, “Cloflucarban Illuminates Specificity and Context-Dependent Activation of the PINK1–Parkin Pathway by Mitochondrial Complex Inhibition” (Biomolecules, 2024)

Target: T1, mitochondrial complex I (Bos taurus, UniProt P03887+P17694+P25708+P42026)
T1 construct: gene MT-ND1; native complex immunocaptured from solubilized bovine heart mitochondria
Assay: NADH oxidation, […] nm, immunocaptured complex
Assay type: biochemical
Details: ubiquinone 1, phospholipids, room temperature

With `Cc1nc(-c2ccc(-c3ccc(C(=O)N4CCc5cc6c(cc54)C4(CCN(C)CC4)CO6)cc3)c(C)c2)no1` [SB-224289] the “% activity relative to vehicle at 50 μM” value was 60%.

In the case of `CO/C(=C/C(N)=O)[C@H](C)[C@H](/C=C/c1csc(-c2csc([C@@H](C)/C=C/C=C/C(C)C)n2)n1)OC` [myxothiazole], the “% activity relative to vehicle at 50 μM” value is reported as 48%.
